How the values were obtained:
[1] = target: Voltage-gated inwardly rectifying potassium channel KCNH2 (Homo sapiens, UniProt Q12809); assay: Inhibition of human ERG transfected in CHO cells by automated patch method; format: toxicity, cell-based
[2] = system: HCT-116; assay: Antiproliferative activity against human HCT-116 cells assessed as reduction in cell viability incubated for 48 hrs by MTT assay; format: functional, cell-based; details: HCT-116, 48 h
[3] = system: Lung; assay: Toxicity in BALB/c mouse assessed as effect on lungs by H and E staining based histological analysis; format: tissue-based; details: in vivo
[4] = AUC (0 to 72 hrs) in Sprague-Dawley rat at 20 mg/kg, iv by LC-MS/MS analysis; format: ADME, organism-based; design: time < 72 hr, route intravenous, dose 20 mg/kg; details: in vivo
[5] = target: Phosphatidylinositol 4,5-bisphosphate 3-kinase catalytic subunit beta isoform (Homo sapiens, UniProt P42338); assay: Inhibition of PI3Kbeta (unknown origin) using PIP2 as substrate in presence of ATP incubated for 60 mins by ADP-glo based luminescence assay
Phosphatidylinositol 4,5-bisphosphate 3-kinase catalytic subunit beta isoform, sequence (P42338 whole entry, canonical isoform): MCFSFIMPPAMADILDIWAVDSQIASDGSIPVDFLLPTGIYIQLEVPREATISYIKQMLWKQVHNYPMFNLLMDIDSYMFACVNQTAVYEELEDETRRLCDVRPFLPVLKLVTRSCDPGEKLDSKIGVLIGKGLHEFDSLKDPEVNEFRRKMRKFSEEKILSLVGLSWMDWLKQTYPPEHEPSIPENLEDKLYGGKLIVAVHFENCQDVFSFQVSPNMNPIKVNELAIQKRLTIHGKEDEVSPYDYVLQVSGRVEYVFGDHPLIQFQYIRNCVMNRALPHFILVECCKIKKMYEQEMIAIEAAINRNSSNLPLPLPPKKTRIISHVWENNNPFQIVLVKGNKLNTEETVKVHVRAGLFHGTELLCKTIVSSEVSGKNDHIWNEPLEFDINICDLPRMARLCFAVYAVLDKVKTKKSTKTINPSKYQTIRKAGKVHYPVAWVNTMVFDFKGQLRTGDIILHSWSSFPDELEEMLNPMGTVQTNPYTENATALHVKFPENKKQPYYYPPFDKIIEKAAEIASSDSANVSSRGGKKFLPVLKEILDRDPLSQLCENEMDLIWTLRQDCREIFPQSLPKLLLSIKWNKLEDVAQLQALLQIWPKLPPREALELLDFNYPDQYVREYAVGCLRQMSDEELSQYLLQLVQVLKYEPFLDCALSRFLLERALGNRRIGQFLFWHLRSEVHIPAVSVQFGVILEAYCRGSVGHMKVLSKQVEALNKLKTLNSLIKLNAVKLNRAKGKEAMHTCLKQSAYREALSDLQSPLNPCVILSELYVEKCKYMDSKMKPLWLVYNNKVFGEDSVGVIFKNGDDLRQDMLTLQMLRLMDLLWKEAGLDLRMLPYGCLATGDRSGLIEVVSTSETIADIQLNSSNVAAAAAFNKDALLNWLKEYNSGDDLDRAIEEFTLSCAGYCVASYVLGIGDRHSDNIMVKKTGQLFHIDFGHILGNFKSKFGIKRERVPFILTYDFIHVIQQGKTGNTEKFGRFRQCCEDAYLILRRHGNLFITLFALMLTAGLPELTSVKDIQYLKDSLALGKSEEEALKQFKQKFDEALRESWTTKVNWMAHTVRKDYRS

[6] = system: HCT-116; assay: Induction of apoptosis in human HCT-116 cells assessed as necrotic cells at 10 uM incubated for 24 hrs by annexin V FITC/propidium iodide staining based flow cytometry (reference value: 0.9 %); format: functional
[7] = system: HCT-116; assay: Inhibition of cell migration in human HCT-116 cells at 1.5 uM measured after 24 hrs by wound healing assay (reference value: 31.16 %); format: functional
[8] = system: HCT-116; assay: Induction of apoptosis in human HCT-116 cells assessed as viable cells at 2.5 uM incubated for 24 hrs by annexin V FITC/propidium iodide staining based flow cytometry (reference value: 81.2 %); format: functional; details: read-out: Activity
[9] = system: HCT-116; assay: Antitumor activity against human HCT-116 cells xenografted in BALB/c nude mouse assessed as tumor size at 20 mg/kg, iv administered for 19 days (reference value: 1264.1+/-95.7 mm3); format: functional; details: time 19 day
[10] = target: Serine/threonine-protein kinase mTOR (Homo sapiens, UniProt P42345); assay: Inhibition of mTOR (unknown origin) using U-Light-4E-BP1 peptide as a substrate in presence of ATP incubated for 45 mins by Lance ultra assay
[11] = Half life in Sprague-Dawley rat at 20 mg/kg, iv by LC-MS/MS analysis; format: ADME, organism-based; details: in vivo
[12] = system: BaF3; assay: Antiproliferative activity against mouse BaF3 cells harboring EGFR L858R/T790M/C797S mutant assessed as reduction in cell viability incubated for 72 hrs by celltiter-glo assay; format: toxicity, cell-based; details: BaF3, 72 h
[13] = system: HCT-116; assay: Induction of apoptosis in human HCT-116 cells assessed as early apoptotic cells at 10 uM incubated for 24 hrs by annexin V FITC/propidium iodide staining based flow cytometry (reference value: 11.1 %); format: functional
[14] = system: CNE-2; assay: Antiproliferative activity against human CNE-2 cells assessed as reduction in cell viability incubated for 48 hrs by MTT assay; format: functional, cell-based; details: CNE-2, 48 h
[15] = system: HCT-116; assay: Induction of apoptosis in human HCT-116 cells assessed as early apoptotic cells at 2.5 uM incubated for 24 hrs by annexin V FITC/propidium iodide staining based flow cytometry (reference value: 11.1 %); format: functional
[16] = system: HCT-116; assay: Induction of cell cycle arrest in human HCT-116 cells assessed as increase in accumulation at G2/M phase at 1.5 to 6 uM after 24 hrs by propidium iodide staining based flow cytometric analysis (reference value: 19.1 %); format: functional; details: dose 1.5-6 µM
[17] = system: Spleen; assay: Toxicity in BALB/c mouse assessed as effect on spleen by H and E staining based histological analysis; format: tissue-based; details: in vivo
[18] = Stability in Sprague-Dawley rat plasma; format: ADME, cell-free
[19] = system: HCT-116; assay: Induction of apoptosis in human HCT-116 cells assessed as late apoptotic cells at 10 uM incubated for 24 hrs by annexin V FITC/propidium iodide staining based flow cytometry (reference value: 6.8 %); format: functional
[20] = system: HeLa; assay: Antiproliferative activity against human HeLa cells assessed as reduction in cell viability incubated for 48 hrs by MTT assay; format: functional, cell-based
[21] = system: HCT-116; assay: Induction of apoptosis in human HCT-116 cells assessed as viable cells at 5 uM incubated for 24 hrs by annexin V FITC/propidium iodide staining based flow cytometry (reference value: 81.2 %); format: functional; details: read-out: Activity
[22] = system: HCT-116; assay: Induction of apoptosis in human HCT-116 cells assessed as necrotic cells at 2.5 uM incubated for 24 hrs by annexin V FITC/propidium iodide staining based flow cytometry (reference value: 0.9 %); format: functional
[23] = system: NCI-H1975; assay: Antiproliferative activity against human NCI-H1975 cells harboring EGFR L858R/T790M double mutant assessed as reduction in cell viability incubated for 72 hrs by celltiter-glo assay; format: functional, cell-based; details: NCI-H1975, 72 h
[24] = target: Cytochrome P450 2C9 (Homo sapiens, UniProt P11712); assay: Inhibition of CYP2C9 (unknown origin); format: ADME
Cytochrome P450 2C9, sequence (P11712 whole entry): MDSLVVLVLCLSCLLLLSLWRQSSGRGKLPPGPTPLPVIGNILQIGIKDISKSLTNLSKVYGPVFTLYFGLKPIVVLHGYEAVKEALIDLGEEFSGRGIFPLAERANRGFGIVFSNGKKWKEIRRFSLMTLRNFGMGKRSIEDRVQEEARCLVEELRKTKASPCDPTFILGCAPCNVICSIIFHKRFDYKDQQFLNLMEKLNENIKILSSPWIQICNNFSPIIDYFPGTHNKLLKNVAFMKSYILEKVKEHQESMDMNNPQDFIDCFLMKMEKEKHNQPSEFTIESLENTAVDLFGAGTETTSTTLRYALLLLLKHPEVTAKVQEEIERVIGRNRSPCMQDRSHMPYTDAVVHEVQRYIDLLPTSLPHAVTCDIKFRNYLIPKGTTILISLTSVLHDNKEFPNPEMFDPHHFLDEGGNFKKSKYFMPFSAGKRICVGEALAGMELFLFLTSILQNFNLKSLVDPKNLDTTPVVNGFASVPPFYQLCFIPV

[25] = target: Cytochrome P450 1A2 (Homo sapiens, UniProt P05177); assay: Inhibition of CYP1A2 (unknown origin); format: ADME
Cytochrome P450 1A2, sequence (P05177 whole entry): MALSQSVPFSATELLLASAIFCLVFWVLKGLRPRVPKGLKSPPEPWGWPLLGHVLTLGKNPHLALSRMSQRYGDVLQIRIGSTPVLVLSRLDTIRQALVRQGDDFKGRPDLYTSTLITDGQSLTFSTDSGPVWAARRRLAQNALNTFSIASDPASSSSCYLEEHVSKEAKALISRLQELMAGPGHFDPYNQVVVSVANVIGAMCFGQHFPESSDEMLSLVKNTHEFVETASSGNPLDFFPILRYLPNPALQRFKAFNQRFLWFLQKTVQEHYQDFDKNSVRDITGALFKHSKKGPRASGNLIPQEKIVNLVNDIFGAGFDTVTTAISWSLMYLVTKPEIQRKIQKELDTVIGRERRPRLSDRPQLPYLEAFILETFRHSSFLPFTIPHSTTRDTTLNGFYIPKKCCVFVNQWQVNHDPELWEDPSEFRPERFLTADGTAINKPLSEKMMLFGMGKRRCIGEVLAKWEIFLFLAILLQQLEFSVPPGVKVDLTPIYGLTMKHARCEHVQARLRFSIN

[26] = Selectivity index, ratio of IC50 for antiproliferative activity against human L02 cells to IC50 for antiproliferative activity against human HepG2 cells; format: toxicity, cell-based; details: L02 cells versus HepG2 cells, read-out: Ratio IC50
[27] = system: HCT-116; assay: Inhibition of cell migration in human HCT-116 cells at 3 uM measured after 24 hrs by wound healing assay (reference value: 31.16 %); format: functional
[28] = system: Mus musculus; assay: Hyperglycemic activity in ICR mouse model assessed as effect on blood glucose level at 20 mg/kg, iv by glucometer; format: toxicity, organism-based; details: in vivo

Voltage-gated inwardly rectifying potassium channel KCNH2, sequence (Q12809 whole entry): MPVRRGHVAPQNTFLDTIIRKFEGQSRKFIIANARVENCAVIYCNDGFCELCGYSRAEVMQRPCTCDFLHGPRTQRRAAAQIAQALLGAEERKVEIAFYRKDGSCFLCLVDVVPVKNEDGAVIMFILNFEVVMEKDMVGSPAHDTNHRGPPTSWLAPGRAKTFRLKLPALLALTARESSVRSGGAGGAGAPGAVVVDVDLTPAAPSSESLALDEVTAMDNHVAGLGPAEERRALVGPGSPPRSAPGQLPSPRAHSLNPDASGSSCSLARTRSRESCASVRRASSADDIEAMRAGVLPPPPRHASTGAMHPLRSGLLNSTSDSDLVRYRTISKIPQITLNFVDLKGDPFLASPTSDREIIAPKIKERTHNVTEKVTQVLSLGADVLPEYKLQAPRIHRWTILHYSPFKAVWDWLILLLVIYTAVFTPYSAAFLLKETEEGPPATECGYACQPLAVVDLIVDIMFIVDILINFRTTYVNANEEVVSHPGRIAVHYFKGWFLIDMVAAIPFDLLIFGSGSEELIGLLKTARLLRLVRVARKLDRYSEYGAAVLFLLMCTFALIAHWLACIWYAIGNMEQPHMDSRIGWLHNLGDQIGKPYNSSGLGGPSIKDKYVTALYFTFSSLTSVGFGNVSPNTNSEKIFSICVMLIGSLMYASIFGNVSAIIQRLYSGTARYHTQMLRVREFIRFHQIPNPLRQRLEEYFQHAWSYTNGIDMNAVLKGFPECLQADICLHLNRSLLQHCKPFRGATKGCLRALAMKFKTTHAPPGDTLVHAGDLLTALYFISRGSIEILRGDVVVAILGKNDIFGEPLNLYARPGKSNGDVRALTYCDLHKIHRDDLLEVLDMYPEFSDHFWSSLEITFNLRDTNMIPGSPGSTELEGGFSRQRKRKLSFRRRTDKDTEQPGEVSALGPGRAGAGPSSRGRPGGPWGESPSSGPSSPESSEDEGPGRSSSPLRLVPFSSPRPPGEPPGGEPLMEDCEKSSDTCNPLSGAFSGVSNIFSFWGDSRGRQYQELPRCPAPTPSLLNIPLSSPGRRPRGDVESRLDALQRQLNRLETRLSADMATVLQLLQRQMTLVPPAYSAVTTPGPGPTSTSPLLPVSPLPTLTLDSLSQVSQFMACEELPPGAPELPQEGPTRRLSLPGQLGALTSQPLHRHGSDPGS

NC(=O)[C@@H]1CCCN1C(=O)c1ccc(NC(=O)Nc2ccc(-c3nc(N4CCOCC4)nc(N4CCOCC4)n3)cc2)cc1
IC50 [1]: > 30 µM | IC50 [2]: 110 nM | Activity [3]: Non-Toxic | AUC(0-t) at 72 h [4]: 30000 ng·h/mL | IC50 [5]: 4.3 nM | Activity [6]: 1.7% | inhibition at 1.5 µM [7]: 12.2% | viability at 2.5 µM [8]: 58.7% | Activity [9]: 796.2 mm3 | IC50 [10]: 3.3 nM | half-life [11]: 1140 min | IC50 [12]: 217 nM | Activity [13]: 24.9% | IC50 [14]: 70 nM | Activity [15]: 18.5% | Activity [16]: 22.2% | Activity [17]: Non-Toxic | Stability [18]: Stable | Activity [19]: 10.3% | IC50 [20]: 13.4 µM | viability at 5 µM [21]: 75.2% | Activity [22]: 2.2% | IC50 [23]: 217 nM | IC50 [24]: > 50 µM | IC50 [25]: > 50 µM | selectivity ratio [26]: 6.6 | inhibition at 3 µM [27]: 9.72% | Activity [28]: Non-Toxic
